{
  "source": "patent US20090252814A1",
  "about": "“USE OF XENON FOR ORGAN PROTECTION” (priority 2005, published 2009)",
  "key": {"erythropoietin (EPO) [1]": {"tested_on": "erythropoietin (EPO)", "experiment": "EPO RNA expression in neonatal rat brain (RT-PCR)", "assay_type": "in vivo, Sprague Dawley rats", "settings": "neonatal rat brains, 75% xenon 2 h, harvested 0-24 h after", "protocol": "Neonatal rats (7 days) Sprague Dawley rats were used. All procedures were approved by the Home Office.\nC=Rat hippocampal brain control stored in −80° C. 0=Rat hippocampal brain treated with xenon for 2 hrs, sacrificed immediately after and stored in −80° C. 2=Rat hippocampal brain treated with xenon for 2 hrs, sacrificed 2 hrs later and stored in −80° C. 4=Rat hippocampal brain treated with xenon for 2 hrs, sacrificed 4 hrs later and stored in −80° C. 8=Rat hippocampal brain treated with xenon for 2 hrs, sacrificed 8 hrs later and stored in −80° C. 24=Rat hippocampal brain treated with xenon for 2 hrs, sacrificed 24 hrs later and stored in −80° C. P2=Rat hippocampal brain positive control with ischaemia injury for 45 mins, harvested after 24 hrs, stored in −80° C.\nTotal RNA was extracted from neonatal rat brains.\nReverse transcription of the RNA in order to obtain the first-strand cDNA was carried out using techniques well known in the art. […]\nThe resulting PCR amplification products were electrophoresed on a 1×TAE agarose gel in 1×TAE buffer and visualised using Fluor-S MultiImager BIORAD. […] As the level of fluorescence is approximately proportional to the amount of intercalated ethidium bromide, the abundance of amplified DNA within samples can be compared; in other words, the level of expression of a gene of interest can be determined. […]"}, "erythropoietin (EPO) [2]": {"tested_on": "erythropoietin (EPO)", "experiment": "EPO protein expression in neonatal rat brain (western blot)", "assay_type": "in vivo, Sprague Dawley rats", "settings": "neonatal rat brains, 75% xenon 2 h, harvested 0-24 h after", "protocol": "(§1) Sprague Dawley, 7 day neonatal rats were used. All procedures were approved by the Home Office.\nThe neonatal rats were exposed to 75% xenon for two hours. The gas was administered by gas inhalation. The brains of said rats were then harvested as described below between 0-24 hours after exposure to the xenon gas.\nThe tissues were homogenised and western blots of neonatal rat brain samples were carried out as described in Example 1.\nThe primary antibodies were anti-α-tubulin antibody, and monoclonal mouse anti-erythropoietin antibody."}, "brain [3]": {"tested_on": "brain", "experiment": "Cortical infarction in neonatal rat brain, xenon and cooling", "assay_type": "in vivo, Sprague Dawley rats", "design": "Total area of infraction: unit not given here", "protocol": "as §1\nThe neonatal rats were exposed to: • (i) 20% xenon alone for 2 hours; • (ii) 35° C. hypothermia for 90 minutes; or • (iii) Hypothermia (35° C.) for 90 minutes before, 1 hour later, 20% xenon for 2 hours.\nThe gas was administered by gas inhalation.\nThe brains of said rats were then harvested at a set time after exposure to the xenon gas. A total of 11 rats were examined for each treatment group.\nThe brains were assessed for cortical infarction in the affected hemisphere.\nThe “intervention” rats under went an ischaemic injury to the brain."}, "VEGF": {"tested_on": "VEGF", "experiment": "VEGF expression in adult mice brains (western blot)", "assay_type": "in vivo, C57BL/6J mice", "settings": "75% xenon and 25% oxygen 2 h, harvested 0-48 h after", "protocol": "Studies were performed on 8 to 12-wk-old C57BL/6J mice (Jackson Labs, Bar Harbor, Me.) that were fed a standard laboratory diet. All procedures were approved by the Home Office.\n(§2) The mice were exposed to 75% xenon and 25% oxygen for two hours. The xenon gas was administered to the mice by inhalation. The brains of said adult mice were then harvested as described below between 0-48 hours after exposure to the xenon gas.\n(§3) The tissues were homogenised and western blots of adult mice brain samples were carried out as described in Example 1.\nThe primary antibodies were anti-α-tubulin antibody, and monoclonal mouse anti-VEGF antibody."}, "HIF-1α gene": {"tested_on": "HIF-1α gene", "experiment": "HIF-1α RNA expression in adult mice brains (RT-PCR)", "assay_type": "in vivo, C57BL/6J mice", "settings": "75% xenon and 25% oxygen 2 h, harvested 0-72 h after", "protocol": "(§4) Studies were performed on 8- to 12-wk-old C57BL/6J mice (Jackson Labs, Bar Harbor, Me.) that were fed a standard laboratory diet. All procedures were approved by the Home Office.\nThe mice were exposed to 75% xenon and 25% oxygen for two hours. The xenon gas was administered to the mice by inhalation. The brains of said adult mice were then harvested as described below between 0-72 hours after exposure to the xenon gas.\nTotal RNA was extracted as described in Example 4. In addition RT-PCR was carried out as described in Example 4. The primers used for the PCR amplifications were: […]"}, "PHD2": {"tested_on": "PHD2", "experiment": "PHD2 expression in adult mice brains (western blot)", "assay_type": "in vivo, C57BL/6J mice", "settings": "75% xenon and 25% oxygen 2 h, harvested 0-48 h after", "protocol": "as §4, §2, §3\nThe primary antibody was monoclonal mouse anti-PHD2 antibody."}, "NMDA receptor": {"tested_on": "NMDA receptor", "settings": "80% xenon, cultured hippocampal neurons; cited from earlier work"}, "[4]": {"settings": "xenon gas; cited from earlier work"}, "main organs": {"tested_on": "main organs", "settings": "xenon exposure (Natale et al 1998); cited from earlier work"}, "rabbit heart": {"tested_on": "rabbit heart", "settings": "xenon during early reperfusion, rabbit heart (Preckel et al 2000); cited from earlier work"}, "brain [5]": {"tested_on": "brain", "settings": "administered 4 hours after hypoxic-ischaemic injury, neonatal rats; cited from earlier work"}},
  "data": [
    {"smiles": "[Xe]", "note": "[xenon]", "values": [
      {"measurement": "EPO expression (RNA)", "setting": "erythropoietin (EPO) [1]", "result": "time-dependent increase"},
      {"measurement": "expression of EPO protein", "setting": "erythropoietin (EPO) [2]", "result": "time-dependent increase"},
      {"measurement": "Total area of infraction", "setting": "brain [3]; Control rats, 20% xenon alone column", "result": "88.3 (±4.1)"},
      {"measurement": "Total area of infraction", "setting": "brain [3]; Control rats, combination column", "result": "92.7 (±6.7)"},
      {"measurement": "Total area of infraction", "setting": "brain [3]; Intervention rats (ischaemic injury), 20% xenon alone for 2 hours", "result": "85.3 (±8.9)"},
      {"measurement": "Total area of infraction", "setting": "brain [3]; Intervention rats (ischaemic injury), combination: hypothermia 35° C. 90 min, 1 hour later 20% xenon 2 hours", "result": "74.1 (±7.8)"},
      {"measurement": "interaction of xenon and cooling on area of infraction", "setting": "brain [3]; hypothermia followed by xenon, administered asynchronously", "result": "synergy"},
      {"measurement": "expression of VEGF", "setting": "VEGF", "result": "time-dependent increase"},
      {"measurement": "transcription of the HIF-1α gene", "setting": "HIF-1α gene", "result": "does not modulate"},
      {"measurement": "expression of PHD2", "setting": "PHD2", "result": "time-dependent reduction"},
      {"measurement": "reduction of NMDA-activated currents", "setting": "NMDA receptor", "result": "up to 60%"},
      {"measurement": "specific gravity or density", "setting": "[4]", "result": 5.887, "unit": "g/L"},
      {"measurement": "toxic effects on main organs", "setting": "main organs", "result": "does not induce significant toxic effects"},
      {"measurement": "infarct size after regional ischaemia", "setting": "rabbit heart", "result": "reduces infarct size"},
      {"measurement": "neuroprotection by combination of xenon and hypothermia", "setting": "brain [5]", "result": "synergistic neuroprotection"}
    ]}
  ]
}
